Test results from patent US20160279146A1, “METHODS AND PHARMACEUTICAL FORMULATIONS FOR TREATMENT OF SELECTIVE ESTROGEN-RECEPTOR MODULATOR-INDUCED ADVERSE DRUG REACTIONS” (priority 2013, published 2016).

Tests used:
healthy females [1] = assay: Neuropsychological tests, proof of concept study: conclusions per neuropsychological domain; format: in vivo, human; settings: for Effect regarding executive functioning: 1 subject (trail making B), an indication; for Effect regarding information processing speed: both subjects, multiple indications
Experimental: (§1) 2 healthy females performed a number of neuropsychological tests at baseline, after taking 40 mg/day of tamoxifen for 4 consecutive days, and after taking 40 mg/day of tamoxifen combined with 0.5 mg/day of sublingual testosterone for 4 consecutive days, to investigate any beneficial effects of sublingual testosterone in women taking a selective estrogen-receptor modulator (SERM).
In this proof of concept study, 2 healthy females performed a number of neuropsychological tests to investigate any beneficial effects of sublingual testosterone in women taking a SERM. The following neuropsychological domains were investigated (tasks are in brackets, see below for more information): • Information processing speed (Big/Little Circle, Choice Reaction Time, Match to Sample Visual Search, Trail making task A, 5-Choice Reaction Time) • Executive functioning (Intra-Extra Dimensional Set Shift, Trail making task B) • Reaction speed (Single Choice Reaction Time) • Working memory (Rapid Visual Information Processing) • Verbal memory (15-words task)
If tamoxifen in these women were to have detrimental effects on their cognitive functioning, a decrease in speed and/or accuracy on either of these tasks was expected.

healthy females [2] = settings: 2 healthy females; after 4 daily doses versus baseline
Description: Intra-Extra Dimensional Set Shift (IED)
Two artificial dimensions are used in the test: • color-filled shapes • white lines
Simple stimuli are made up of just one of these dimensions, whereas compound stimuli are made up of both, namely white lines overlying colour-filled shapes. The participant starts by seeing two simple colour-filled shapes, and must learn which one is correct by touching it.
Feedback teaches the participant which stimulus is correct, and after six correct responses, the stimuli and/or rules are changed. These shifts are initially intra-dimensional (e.g. colour filled shapes remain the only relevant dimension), then later extra-dimensional (white lines become the only relevant dimension). Participants progress through the test by satisfying a set criterion of learning at each stage (six consecutive correct responses). If at any stage the participant fails to reach this criterion after 50 trials, the test terminates. […]

healthy females [3] = assay: Rapid Visual Information Processing (RVP); format: in vivo, human; settings: 2 healthy females; after 4 daily doses versus baseline
Description: A white box appears in the centre of the computer screen, inside which digits, from 2 to 9, appear in a pseudo-random order, at the rate of 100 digits per minute.
The nine RVP outcome measures cover latency, probabilities and sensitivity.

healthy females [4] = assay: 15 Words Test; format: in vivo, human; settings: after 4 daily doses; for 15 words direct / 15 words recall: number of recalled words; for 15 words direct: total in 5 consecutive trials; for 15 words recognition: number of words
Experimental: as §1
The 15 Words Test (15WT) is developed to investigate episodic memory problems in patients with brain disorders. It is the Dutch version of the Auditory Verbal Learning Test (REF?). This test consists of 15 words, which have to be learned during five trials. After every trial the respondent is asked to recall as many words as possible. After a distraction period of 20 minutes, the respondent is, again asked to name the words they have learned before.

C[C@]12CC[C@H]3[C@@H](CCC4=CC(=O)CC[C@@]43C)[C@@H]1CC[C@@H]2O [testosterone]
Effect regarding verbal memory (healthy females [1]; 1 subject (15 words recall)): positive effect
Effect regarding executive functioning (healthy females [1]): positive effects
Effect regarding information processing speed (healthy females [1]): positive effects

CC/C(=C(\c1ccccc1)c1ccc(OCCN(C)C)cc1)c1ccccc1 [TAMOXIFEN, (Z)-2-[4-(1,2-diphenylbut-1-enyl)phenoxy]-N,N-dimethyl-ethanamine]
IED task result (healthy females [2]): no effects
RVP task result (healthy females [3]): no effects
15 words direct (healthy females [4]; Subject 1): 51
15 words recall (healthy females [4]; Subject 1): 6
15 words recognition (healthy females [4]; Subject 1): 27
15 words direct (healthy females [4]; Subject 2): 43
15 words recall (healthy females [4]; Subject 2): 9
15 words recognition (healthy females [4]; Subject 2): 28
Effect regarding executive functioning (healthy females [1]): deteriorating effects
Effect regarding information processing speed (healthy females [1]): deteriorating effects
